“And” between values parts separate entries of the source, which are not always exact repeats. Identical values can stand only once. “Also recorded” adds a separate entry of the source. Counter-ions that a name gives are not always drawn. Like-named read-outs stand apart in the source and are kept apart here.
What was measured:
SARS-CoV-2 [1] = experiment: Immunofluorescence (HCI, dsRNA stain) antiviral assay, SARS-CoV-2 in HeLa-hACE2; type: cell-based; details: read-out: EC50 against SARS-CoV-2 in HeLa-hACE2
HCoV-229E = experiment: microbe, parasite or virus in culture; type: cell-based, human coronavirus 229E; details: HCI (dsRNA stain), 24 h at 35 °C, read-out: EC50 against HCoV-229E in HeLa-hACE2
in vitro [2] = details: African green monkey
[3] = Cytotoxicity in uninfected A549-hACE2 cells (ATPlite); details: human, A549-hACE2 cells
SARS-CoV-2 [4] = experiment: Immunofluorescence (HCI, spike stain) antiviral assay, SARS-CoV-2 in A549-hACE2; type: cell-based; details: read-out: EC50 against SARS-CoV-2 in A549-hACE2
SARS-CoV-1 = experiment: microbe, parasite or virus in culture; type: cell-based; details: 24 h, read-out: EC50 against SARS-CoV-1 in A549-hACE2
[5] = system: SARS-CoV-2 pseudovirus (SARS2pp); experiment: microbe, parasite or virus in culture; type: cell-based; details: luciferase, 24 h, read-out: EC50, neutralization of SARS2pp entry in VeroE6
[6] = system: SARS-CoV-2 pseudovirus (SARS2pp); experiment: microbe, parasite or virus in culture; type: cell-based
A549-hACE2 cells = experiment: Cytotoxicity in uninfected A549-hACE2 cells (ATPlite); details: for CC50: read-out: CC50 in A549-hACE2, Toxicity (ATPlite), uninfected cells
SARS-CoV-2 [7] = experiment: SARS-CoV-2 antiviral assay in VeroE6-eGFP cells (CPE reduction, GFP); details: for EC50: MOI 0.001, 96 h
HeLa-hACE2 cells = experiment: Immunofluorescence-based antiviral assay with LysoTracker dye in HeLa-hACE2; details: for LysoTracker signal intensity (in words): HeLa-hACE2, acidic organelle accumulation
SARS-CoV-2 [8] = experiment: SARS-CoV-2 viral RNA copy determination in A549-hACE2 cells (RT-qPCR on supernatant); type: cell-based; details: for reduction of SARS-CoV-2 RNA in the supernatant: A549-hACE2, RT-qPCR at 48 hpi; for EC50: read-out: EC50, viral RNA reduction in supernatant
SARS-CoV-2 [9] = experiment: Antiviral assessment in Caco-2 cells by visual CPE scoring; type: cell-based; details: read-out: EC50 against SARS-CoV-2 in Caco-2
SARS-CoV-2 [10] = experiment: Time-of-addition (TOA) assay in HeLa-hACE2, dsRNA staining; type: cell-based; details: HeLa-hACE2, MOI 4, 2.5-5 µM compound, dsRNA readout at 8 hpi
SARS-CoV-2 [11] = system: SARS-CoV-2
in vitro [12] = details: African green monkey; remark: listed apart in the source
SARS-CoV-2 [13] = experiment: microbe, parasite or virus in culture; type: cell-based, SARS-CoV-2 (Lineage A, B.1); details: for EC50: vRNA (qPCR), read-out: EC50 against SARS-CoV-2 in HNECs; for antiviral activity in HNEC ALI cultures (in words): viral RNA copies in apical washes over three days
cathepsin L = molecular target: T1, cathepsin L (Homo sapiens, UniProt P07711); experiment: Enzymatic cathepsin L inhibition assay (Eurofins); type: biochemical
T1 construct: purchased Eurofins (contract assay)

in vitro [14] = details: human, Caco-2
[15] = Severe acute respiratory syndrome coronavirus 2, 24 h
[16] = read-out: EC50 against SARS-CoV-2 in VeroE6-eGFP, CPE reduction (GFP)
[17] = A549-hACE2, SARS-CoV-2 MOI 0.1, RT-qPCR at 48 hpi
[18] = Severe acute respiratory syndrome coronavirus 2, A549-hACE2, SARS-CoV-2 MOI 0.1, RT-qPCR at 48 hpi
[19] = Severe acute respiratory syndrome coronavirus
[20] = Severe acute respiratory syndrome coronavirus 2, 96 h, read-out: EC50 against SARS-CoV-2 in VeroE6-eGFP, CPE reduction (GFP)
[21] = Severe acute respiratory syndrome-related coronavirus, Vero C1008
[22] = Severe acute respiratory syndrome-related coronavirus, VeroE6/TMPRSS2, SARS2pp, mean ± SD, unit inferred, [µM] only in axis labels, read-out: VeroE6 TMPRSS2: EC50 (Figure 6)

T1 sequence (P07711 114-333): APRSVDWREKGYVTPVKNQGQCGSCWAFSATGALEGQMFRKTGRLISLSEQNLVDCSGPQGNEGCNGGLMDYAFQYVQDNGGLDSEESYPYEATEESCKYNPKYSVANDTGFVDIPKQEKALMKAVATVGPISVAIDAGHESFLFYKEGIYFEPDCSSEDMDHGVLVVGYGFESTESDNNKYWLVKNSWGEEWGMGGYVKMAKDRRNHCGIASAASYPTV

For `CC(C)C(=O)OC[C@H]1O[C@@H](n2ccc(NO)nc2=O)[C@H](O)[C@@H]1O` [Molnu-Piravir, molnupiravir], which EC50 (SARS-CoV-2 [1]; [15]) is on record?
Its EC50 is 1010 ± 110 nM.

And the EC50 (HCoV-229E; Human coronavirus 229E, 24 h)?
The EC50 was 1320 ± 180 nM.

What about the CC50 (in vitro [2]) of the same compound?
The CC50 was > 100000 nM.

What about the CC50 [3] of the same compound?
The CC50 was > 50000 nM.

For `CN1CCN(C(=O)N[C@@H](Cc2ccccc2)C(=O)N[C@H](/C=C/S(=O)(=O)c2ccccc2)CCc2ccccc2)CC1` [K777], which EC50 (SARS-CoV-2 [4]; 24 h) is on record?
The EC50 was 4 ± 0.2 nM.

And the EC50 (SARS-CoV-2 [1]; 24 h)?
The EC50 was 0.6 ± 0.05 nM.

What about the EC50 (SARS-CoV-1; HCI (spike stain), MOI 0.1) of the same compound?
The EC50 was 3 ± 0.5 nM.

And the EC50 (HCoV-229E)?
The EC50 was 2 ± 0.4 nM.

And the EC50 [5]?
The EC50 was 23 nM.

And the EC50 ([6]; luciferase, 24 h, read-out: EC50, neutralization of SARS2pp entry in VeroE6 TMPRSS2)?
The EC50 was 18.6 µM.

And the CC50 (VeroE6-eGFP cells)?
Its CC50 is ~50000 nM.

And the CC50 (VeroE6 cells)?
The CC50 was > 30000 nM.

What about the CC50 (A549-hACE2 cells) of the same compound?
The CC50 was > 50 nM.

And the EC50 (SARS-CoV-2 [7]; [16])?
The EC50 was 540 ± 140 nM.

And the “concentration at which the LysoTracker signal is significantly increased” value (HeLa-hACE2 cells; HeLa-hACE2, adjusted p-value < 0.05 vs virus control)?
Its value is ≥ 2.2 µM.

Which “reduction of SARS-CoV-2 RNA in the supernatant” value (SARS-CoV-2 [8]) does the source give for `CCC(CC)COC(=O)[C@H](C)N[P@](=O)(OC[C@H]1O[C@@](C#N)(c2ccc3c(N)ncnn23)[C@H](O)[C@@H]1O)Oc1ccccc1` [Remdesivir, remdesivir] here?
Its value is ~ 4.5 log.

What about the EC50 (SARS-CoV-2 [8]; [17]) of the same compound?
Its EC50 is 411 nM.

What about the EC50 (SARS-CoV-2 [8]; [18]) of the same compound?
The EC50 was 410 nM.

And the EC50 (SARS-CoV-2 [4]; [15])?
Its EC50 is 180 ± 10 nM.

And the EC50 (SARS-CoV-2 [1]; [15])?
Its EC50 is 110 ± 10 nM.

What about the EC50 (SARS-CoV-1; [19]) of the same compound?
The EC50 was 330 ± 20 nM.

And the EC50 (HCoV-229E; Human coronavirus 229E, 24 h)?
The EC50 was 110 ± 9 nM.

What about the EC50 (SARS-CoV-2 [9]; Severe acute respiratory syndrome coronavirus 2, Caco-2, 48 h) of the same compound?
The EC50 was 770 ± 260 nM.

And the “time of addition until which inhibition of dsRNA formation was sustained” value (SARS-CoV-2 [10])?
Its value is ~ 4 hpi.

What about the EC50 (SARS-CoV-2 [11]) of the same compound?
The EC50 was 1420 ± 150 nM.

What about the CC50 (in vitro [2]) of the same compound?
The CC50 was > 100000 nM.

What about the CC50 [3] of the same compound?
The CC50 was > 25000 nM.

What about the EC50 (SARS-CoV-2 [7]; [20]) of the same compound?
The EC50 was 1340 nM.

And the “LysoTracker signal intensity (in words)” value (HeLa-hACE2 cells)?
Its value is “neither one of the compounds increased the intensity of the LysoTracker signal”.

For `CN(C)C(=O)COC(=O)Cc1ccc(OC(=O)c2ccc(NC(=N)N)cc2)cc1` [Camostat mesylate, camostat mesylate], which EC50 [5, 21] is on record?
Its EC50 is > 30000 nM.

And the EC50 [6, 22]?
Its EC50 is 18 ± 5.52 µM.

And the EC50 ([6]; Severe acute respiratory syndrome-related coronavirus, VeroE6/TMPRSS2, luciferase, 24 h, read-out: EC50, neutralization of SARS2pp entry in VeroE6 TMPRSS2)?
The EC50 was ~18 µM.

And the CC50 (in vitro [12])?
Its CC50 is > 30000 nM.

For `C[C@H](NC(=O)[C@H](Cc1ccc(O)cc1)NC(=O)OCc1ccccc1)C(=O)C=[N+]=[N-]`, which “reduction of SARS-CoV-2 RNA in the supernatant” value (SARS-CoV-2 [8]) is on record?
The value was ~ 4 log and 4 log.

And the EC50 (SARS-CoV-2 [8]; [17])?
Its EC50 is 321 nM.

What about the EC50 (SARS-CoV-2 [8]; [18]) of the same compound?
Its EC50 is 320 nM.

What about the EC50 (SARS-CoV-2 [4]; 24 h) of the same compound?
Its EC50 is 50 ± 3 nM.

And the EC50 (SARS-CoV-2 [4]; [15])?
The EC50 was 46 nM.

What about the EC50 (SARS-CoV-2 [1]; 24 h) of the same compound?
Its EC50 is 10 ± 1 nM.

What about the EC50 (SARS-CoV-2 [1]; [15]) of the same compound?
Its EC50 is 6 nM.

What about the EC50 (SARS-CoV-1; [19]) of the same compound?
Its EC50 is 50 ± 16 nM.

And the EC50 (HCoV-229E)?
Its EC50 is 70 ± 10 nM.

What about the EC50 (HCoV-229E; Human coronavirus 229E, 24 h) of the same compound?
The EC50 was 69 nM.

What about the EC50 (SARS-CoV-2 [9]; Severe acute respiratory syndrome coronavirus 2, Caco-2, CPE reduction (manual scoring), MOI 0.01, 48 h) of the same compound?
The EC50 was > 50000 nM.

And the EC50 (SARS-CoV-2 [13]; Severe acute respiratory syndrome coronavirus 2)?
Its EC50 is > 20000 nM.

And the “antiviral activity in HNEC ALI cultures (in words)” value (SARS-CoV-2 [13]; compound at 20 µM)?
Its value is “does not inhibit SARS-CoV-2 infection; also recorded: did not show antiviral activity”.

What about the “antiviral activity in differentiated HNECs (in words)” value (SARS-CoV-2 [13]; concentration not given) of the same compound?
The value was “did not show antiviral activity”.

And the “time of addition from which antiviral activity was lost” value (SARS-CoV-2 [10])?
The value was ≥ 2 h post virus infection.

And the EC50 [5, 21]?
The EC50 was 130 nM.

What about the “activity against SARS2pp in VeroE6 TMPRSS2 (in words)” value [6] of the same compound?
Its value is “not active at all”.

And the EC50 [6, 22]?
The EC50 was > 30 µM.

And the EC50 (cathepsin L; enzymatic assay, substrate Z-Phe-Arg AMC, one experiment)?
Its EC50 is < 50 nM.

And the CC50 (in vitro [14])?
The CC50 was > 50000 nM.

What about the CC50 [3] of the same compound?
Its CC50 is > 25000 nM.

And the “cytotoxicity (in words)” value (A549-hACE2 cells; uninfected A549-hACE2, ATPlite)?
Its value is “did not show cytotoxicity”.

And the “selectivity index (SI), VeroE6-eGFP SARS-CoV-2” value (SARS-CoV-2 [7]; CC50/EC50 in VeroE6-eGFP)?
Its value is > 15.

What about the EC50 (SARS-CoV-2 [7]; [20]) of the same compound?
The EC50 was 1330 ± 490 nM.

What about the “LysoTracker signal intensity (in words)” value (HeLa-hACE2 cells) of the same compound?
The value was “did not significantly increase the intensity of the LysoTracker signal”.

With `CC(=O)N[C@@H](CC(C)C)C(=O)N[C@@H](CC(C)C)C(=O)N[C@H](C=O)CCCNC(=N)N` [leupeptin] as the compound, how does the “cathepsin L activity (in words)” value (cathepsin L; positive control) read?
Its value is “blocked cathepsin L activity”.

Which results are given for `COc1cccc2[nH]c(C(=O)N[C@@H](CC(C)C)C(=O)N[C@@H](C[C@@H]3CCNC3=O)C(=O)CO)cc12` [PF-00835231]?
reduction of SARS-CoV-2 RNA in the supernatant (SARS-CoV-2 [8]): ~ 4.8 log; EC50 (SARS-CoV-2 [8]; [17]): 530 nM and 532 nM; EC50 (SARS-CoV-2 [4]; 24 h): 180 ± 8 nM; EC50 (SARS-CoV-2 [1]; 24 h): 160 ± 20 nM; EC50 (SARS-CoV-1; HCI (spike stain), MOI 0.1): 550 ± 40 nM; EC50 (HCoV-229E): 470 ± 40 nM; time of addition until which inhibition of dsRNA formation was sustained (SARS-CoV-2 [10]): ~ 4 hpi; CC50 (VeroE6-eGFP cells): > 20000 nM; CC50 (A549-hACE2 cells): > 12500 nM; EC50 (SARS-CoV-2 [7]; [16]): > 50000 nM; LysoTracker signal intensity (in words) (HeLa-hACE2 cells): neither one of the compounds increased the intensity of the LysoTracker signal

Which “antiviral activity in HNEC ALI cultures (in words)” value (SARS-CoV-2 [13]; compound at 2.5 µM) does the source give for `CC(C)(C)[C@H](NC(=O)C(F)(F)F)C(=O)N1C[C@H]2[C@@H]([C@H]1C(=O)N[C@H](C#N)C[C@@H]1CCNC1=O)C2(C)C` [PF-07321332, nirmatrelvir] here?
Its value is “did”.

What about the EC50 (SARS-CoV-2 [13]) of the same compound?
Its EC50 is 180 ± 140 nM.

What about the “time of addition until which inhibition of dsRNA formation was sustained” value (SARS-CoV-2 [10]) of the same compound?
The value was ~ 4 hpi.
